Consider 23 compounds from patent US8575145B2, “Triazolopyridine compounds as PIM kinase inhibitors” (Array BioPharma Inc., priority 2008, dated 2013).

One assay has as its target recombinant rat PIM-3 (Rattus norvegicus (Rat), UniProt O70444). Put plainly: PIM-3 Enzyme Assay. The following applies: read-out: PIM-3 IC50; 30 μM ATP, 0.5 nM PIM-3.
The next assay concerns the target PIM-1 (Homo sapiens (Human), UniProt P11309). Put plainly: PIM-1 Enzyme Assay. The assay is classed as biochemical. As to the method: The amount of radiolabeled product is then measured by liquid scintillation counting. The final buffer conditions were as follows: 20 mM K^+MOPS, pH 7.4, 10 mM MgCl2, 0.005% Tween-20, 1 mM DTT. […] Incubations were carried out for 60 min at 22° C. and quenched with 75 μL of 200 mM H3PO4, filtered through a Whatman P81 plate and washed (1×200 μL and 5×100 μL ) with 200 mM H3PO4. Liquid scintillation cocktail (50 μL ) was then added per well, and the plate was counted for 30 s/well using a TopCount NXT.
One-μL aliquots of these were then transferred to the assay mixtures above to give a final concentration of DMSO of 2%. […] For each plate, percent of control (POC) values were calculated for each well. IC50's were estimated from the POC's using a standard 4-parameter logistic model. The IC50 is defined as the concentration of inhibitor at which the POC equals 50 for the fitted curve.

For assay [1], the target named is GST-tagged recombinant full-length human PIM-2 (Homo sapiens (Human), UniProt Q9P1W9). Description: PIM-2 Enzyme Assay. The following applies: read-out: PIM-2 IC50.

Where a name gives a salt, the structure may show the parent alone. Read-outs that look alike come from different tables or passages of the source.

PIM-1, sequence (P11309 whole entry, species assumed): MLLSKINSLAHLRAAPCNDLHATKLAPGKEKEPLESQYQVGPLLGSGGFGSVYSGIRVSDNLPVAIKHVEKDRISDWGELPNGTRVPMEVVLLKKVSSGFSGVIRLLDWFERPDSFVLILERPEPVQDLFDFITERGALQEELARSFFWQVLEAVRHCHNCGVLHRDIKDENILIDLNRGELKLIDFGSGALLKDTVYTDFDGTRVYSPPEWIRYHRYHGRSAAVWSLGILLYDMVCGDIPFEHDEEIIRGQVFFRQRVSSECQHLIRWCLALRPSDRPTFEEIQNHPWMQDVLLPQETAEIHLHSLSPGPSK
GST-tagged recombinant full-length human PIM-2, sequence (Q9P1W9 whole entry): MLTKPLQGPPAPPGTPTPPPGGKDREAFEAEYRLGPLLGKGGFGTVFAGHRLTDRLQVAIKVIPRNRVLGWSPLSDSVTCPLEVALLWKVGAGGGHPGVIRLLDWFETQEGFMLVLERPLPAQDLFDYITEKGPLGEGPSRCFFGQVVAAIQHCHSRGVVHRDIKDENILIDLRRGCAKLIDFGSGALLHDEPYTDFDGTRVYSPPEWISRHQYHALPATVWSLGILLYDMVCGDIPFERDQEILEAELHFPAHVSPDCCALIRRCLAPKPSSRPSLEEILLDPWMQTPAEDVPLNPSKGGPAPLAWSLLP

By IC50 is commonly meant the concentration that gives 50% inhibition. On to `O[C@H]1CC[C@H](Nc2cccc3ccc(-c4nnc5ccccn45)nc23)CC1` [Example 3, (trans)-4-(2-([1,2,4]Triazolo[4,3-a]pyridin-3-yl)quinolin-8-ylamino)cyclohexanol], for which the IC50 was 25 nM on recombinant rat PIM-3; 3 nM on PIM-1 (35 μM ATP, 0.25 nM PIM-1); 807 nM in assay [1] (4 μM ATP, […] PIM-2).
`c1cc(OC2CCCNCC2)c2nc(-c3nnc4ccccn34)ccc2c1` (single isomer, unassigned) [Example 127, 2-([1,2,4]triazolo[4,3-a]pyridin-3-yl)-8-(azepan-4-yloxy)quinoline]: the IC50 is 6.8 nM at recombinant rat PIM-3; 4.8 nM at PIM-1 (35 μM ATP, 0.25 nM PIM-1); 438 nM in assay [1] (4 μM ATP, […] PIM-2).
For `FC1(COc2cccc3ccc(-c4nnc5ccccn45)nc23)CCNCC1` [Example 66, 2-([1,2,4]triazolo[4,3-a]pyridin-3-yl)-8-((4-fluoropiperidin-4-yl)methoxy)quinoline dihydrochloride], the figures for the IC50 (on recombinant rat PIM-3; at PIM-1; in assay [1]) were 3 nM, 0.8 nM and 52 nM, respectively.
Regarding `c1cc(O[C@@H]2CCNC2)c2nc(-c3nnc4ccccn34)ccc2c1` [Example 11, (R)-2-([1,2,4]Triazolo[4,3-a]pyridin-3-yl)-8-(pyrrolidin-3-yloxy)quinoline], the IC50 at recombinant rat PIM-3 turned out to be 33 nM; on PIM-1 (35 μM ATP, 0.25 nM PIM-1), 23 nM; in assay [1] (4 μM ATP, […] PIM-2) it was 2470 nM.
For `c1cc(N[C@H]2CCNC2)c2nc(-c3nnc4ccccn34)ccc2c1` [Example 4, (S)-2-([1,2,4]Triazolo[4,3-a]pyridin-3-yl)-N-(pyrrolidin-3-yl)quinolin-8-amine], in that order: 105 nM, 22 nM and 6020 nM.
Take `CCC(Oc1cccc2ccc(-c3nnc4ccccn34)nc12)[C@@H](CC)CN` (stereo partly drawn) [Example 30, (2S)-3-(2([1,2,4]triazolo[4,3-a]pyridin-3-yl)quinolin-8-yloxy)-2-ethylpentan-1-amine]: the IC50 at recombinant rat PIM-3 is 13 nM; against PIM-1 (35 μM ATP, 0.25 nM PIM-1) it was 3 nM; in assay [1] (4 μM ATP, […] PIM-2), 318 nM.
The corresponding values for `Fc1cc(OC2CCNCCC2F)c2nc(-c3nnc4ccccn34)ccc2c1` (single isomer, unassigned) [Example 120, 2-([1,2,4]triazolo[4,3-a]pyridin-3-yl)-6-fluoro-8-((cis)-5-fluoroazepan-4-yloxy)quinoline] are 10.9 nM, 11 nM and 959 nM.
Consider `COC(=O)[C@@H]1C[C@@H](Oc2cccc3ccc(-c4nnc5ccccn45)nc23)CCN1` [Example 13, (2S,4S)-Methyl 4-(2-([1,2,4]triazolo[4,3-a]pyridin-3-yl)quinolin-8-yloxy)piperidine-2-carboxylate], for which the IC50 on recombinant rat PIM-3 stood at 9 nM; in assay [1] (4 μM ATP, […] PIM-2), 189 nM.
In the case of `COC(=O)[C@@H]1C[C@H](Oc2cccc3ccc(-c4nnc5ccccn45)nc23)CN1` [Example 87, (2S,4S)-methyl 4-(2-([1,2,4]triazolo[4,3-a]pyridin-3-yl)quinolin-8-yloxy)pyrrolidine-2-carboxylate], the IC50 amounted to 248 nM at recombinant rat PIM-3 and 167 nM at PIM-1 (35 μM ATP, 0.25 nM PIM-1).
For `CC(C)(COc1cccc2ccc(-c3nnc4ccccn34)nc12)[C@@H](O)CO` [Example 113, (R)-4-(2-([1,2,4]triazolo[4,3-a]pyridin-3-yl)quinolin-8-yloxy)-3,3-dimethylbutane-1,2-diol], the IC50 at recombinant rat PIM-3 was 8.8 nM; in assay [1] (4 μM ATP, […] PIM-2), 167 nM.
Regarding `NCCCOc1cccc2ccc(-c3nnc4ccccn34)nc12` [Example 10, 3-(2-([1,2,4]Triazolo[4,3-a]pyridin-3-yl)quinolin-8-yloxy)propan-1-amine], the half-maximal inhibitory concentration (IC50) on recombinant rat PIM-3 came to 13 nM; in assay [1] (4 μM ATP, […] PIM-2), 514 nM.
For `CNCC(C)(C)COc1cccc2ccc(-c3nnc4ccccn34)nc12` [Example 28, 3-(2-([1,2,4]triazolo[4,3-a]pyridin-3-yl)quinolin-8-yloxy)-N,2,2-trimethylpropan-1-amine], in that order: 4 nM and 143 nM.
On to `CCNCC(C)(C)COc1cccc2ccc(-c3nnc4ccccn34)nc12` [Example 27, 3-(2-([1,2,4]triazolo[4,3-a]pyridin-3-yl)quinolin-8-yloxy)-N-ethyl-2,2-dimethylpropan-1-amine di-trifluoroacetate], for which the IC50 on recombinant rat PIM-3 came out at 13 nM; in assay [1] (4 μM ATP, […] PIM-2), 323 nM.
Take `c1cc(OCc2ccncc2)c2nc(-c3nnc4ccccn34)ccc2c1` [Example 45, 2-([1,2,4]triazolo[4,3-a]pyridin-3-yl)-8-(pyridin-4-ylmethoxy)quinoline]: the IC50 against PIM-1 (35 μM ATP, 0.25 nM PIM-1) was 26.9 nM; in assay [1] (4 μM ATP, […] PIM-2) it was 1730 nM.
With `FC1(COc2cccc3ccc(-c4nnc5ccc(C6CC6)cn45)nc23)CCNCC1` [Example 79, 2-(6-cyclopropyl-[1,2,4]triazolo[4,3-a]pyridin-3-yl)-8-((4-fluoropiperidin-4-yl)methoxy)quinoline dihydrochloride], the IC50 was determined as 0.2 nM against PIM-1 (35 μM ATP, 0.25 nM PIM-1) and 55 nM in assay [1] (4 μM ATP, […] PIM-2).
As for `CC(C)(CO)COc1cccc2ccc(-c3nnc4ccccn34)nc12` [Example 24, 3-(2-([1,2,4]triazolo[4,3-a]pyridin-3-yl)quinolin-8-yloxy)-2,2-dimethylpropan-1-ol], the 50% inhibitory concentration (IC50) at recombinant rat PIM-3 was 4 nM; in assay [1] (4 μM ATP, […] PIM-2), 77 nM.
For the compound `Nc1cc(Oc2cccc3ccc(-c4nnc5ccccn45)nc23)ccn1` [Example 75, 4-(2-([1,2,4]triazolo[4,3-a]pyridin-3-yl)quinolin-8-yloxy)pyridin-2-amine], the half-inhibitory concentration (IC50) was found to be 263 nM on PIM-1 (35 μM ATP, 0.25 nM PIM-1) and 8940 nM in assay [1] (4 μM ATP, […] PIM-2).
As to `F[C@@H]1CNCC[C@@H]1Oc1cccc2ccc(-c3nnc4ccc(C5CC5)cn34)nc12` (relative stereo) [Example 80, 2-(6-cyclopropyl-[1,2,4]triazolo[4,3-a]pyridin-3-yl)-8-((cis)-3-fluoropiperidin-4-yloxy)quinoline dihydrochloride], the IC50 amounted to 2 nM on PIM-1 (35 μM ATP, 0.25 nM PIM-1) and 1160 nM in assay [1] (4 μM ATP, […] PIM-2).
For `CC(C)(CN)COc1cccc2ccc(-c3nnc4ccc(Br)cn34)nc12` [Example 63, 3-(2-(6-bromo-[1,2,4]triazolo[4,3-a]pyridin-3-yl)quinolin-8-yloxy)-2,2-dimethylpropan-1-amine dihydrochloride], the IC50 on PIM-1 turned out to be 0.65 nM; in assay [1], 101 nM.
`N#Cc1ccc2nnc(-c3ccc4cccc(O[C@@H]5CCNCC[C@H]5F)c4n3)n2c1` (relative stereo) [Example 101, 3-(8-((trans)-5-fluoroazepan-4-yloxy)quinolin-2-yl)-[1,2,4]triazolo[4,3-a]pyridine-6-carbonitrile dihydrochloride]: the IC50 against PIM-1 (35 μM ATP, 0.25 nM PIM-1) worked out at 13 nM; in assay [1] (4 μM ATP, […] PIM-2), 1000 nM.
The corresponding values for `Nc1nccc(Oc2cccc3ccc(-c4nnc5ccccn45)nc23)n1` [Example 76, 4-(2-([1,2,4]triazolo[4,3-a]pyridin-3-yl)quinolin-8-yloxy)pyrimidin-2-amine] are 648 nM and 10000 nM.
As for `CN1CC[C@@H](F)[C@H](Oc2cccc3ccc(-c4nnc5ccccn45)nc23)CC1` (relative stereo) [Example 118, 2-([1,2,4]triazolo[4,3-a]pyridin-3-yl)-8-((trans)-5-fluoro-1-methylazepan-4-yloxy)quinoline], the IC50 against PIM-1 (35 μM ATP, 0.25 nM PIM-1) is 3 nM; in assay [1] (4 μM ATP, […] PIM-2) it was 330 nM.
`c1cc(OCC2CNCCO2)c2nc(-c3nnc4ccccn34)ccc2c1` (centres unmarked) [Example 126]: the IC50 against PIM-1 (35 μM ATP, 0.25 nM PIM-1) came out at 14.2 nM; in assay [1] (4 μM ATP, […] PIM-2), 354 nM.
